# Where no end group is shown, it is not given here. [ ]: non-standard residue; d: D form. Dhb = C/C=C(\N)C(=O)O; Dha = C=C(N)C(=O)O
# Experiments:
# S. aureus (ATCC 6538) = test: Antibacterial activity by optical density (OD600) of bacterial culture; assay type: cell-based
# Procedure: The antimicrobial activities of the samples were determined using S. aureus (ATCC 6538) as a representative Gram-positive bacterium. The optical density (OD) was used to assess the antibacterial activity of the nisin and the nisin-SACD complexes[41],[42]. The bacteria were precultured on Luria-Bertani media at 37 °C for 24 h to obtain seed cultures. These seed cultures were then diluted to 10^6 CFU using Luria-Bertani media. […] A bacteria culture containing no sample was used as a blank control group. After incubating at 37 °C for 24 h, the growth of bacteria in the culture media was determined by recording the OD at 600 nm (OD600) using an UV-visible spectrophotometer (UV–1800PC, Mapada, China).
# S. aureus [1] = test: MIC by broth microdilution; assay type: cell-based; settings: nisin 3.125-400 µg/mL, SACD 0.3125-40 mg/mL, 37 °C, 24 h, result in words
# Procedure: (§1) After confirming the antibacterial activity of nisin-SACD complexes, the MIC of nisin-SACD complexes was further measured by the broth microdilution method as reported by Li et al.. […] The initial solutions were then serially diluted until the concentration of them reached 3.125 µg/mL, 0.3125 mg/mL, 0.3125 mg/mL, and 0.3125 mg/mL, respectively. 100 µL of the samples at different concentrations were then cultured with 100 µL S. aureus dilutions containing 10^6 CFU bacteria in 96-well plates. The plates were incubated at 37 °C for 24 h. […] S aureus treated with nisin-SACD and HSS-nisin-SACD at MIC were further stained using a live/dead bacterial double stain kit (LMAI Bio, China), and the number of the total bacteria and dead bacteria could be represented by the fluorescence intensity value directly. Note there is no statistical relationship between the fluorescence intensity of the total bacteria and the dead bacteria, since they are stained by two different fluorescent dyes.
# S. aureus [2] = test: Live/dead bacterial double stain fluorescence intensity; assay type: cell-based; settings: complexes at their MIC levels, result in words
# Procedure: as §1
# [3] = Thermogravimetric analysis (TG/dTG); assay type: physicochemical; settings: dry powder, N2 50 mL/min, 10 °C/min, 30 to 600 °C
# Procedure: The thermal behavior of the nisin-SACD complexes was evaluated using a thermogravimetric (TG) analysis system (TGA2, Mettler–Toledo, Schwerzenbach, Switzerland) under N2 (50 mL/min) at a 10 °C/min heating rate over a temperature range from 30 to 600 °C.
# S. aureus [4] = settings: pure SACD at a relatively high dose; result in words; cited from earlier work
# Text: S. aureus is commonly used as model Gram-positive bacteria to predict the antibacterial effects of the bacteriostatic agent. Meanwhile, it is a significant cause of foodborne illness leading to gastroenteritis, diarrhea, and vomiting. Foods susceptible to S. aureus intoxication including meat, egg, and dairy products. It is known that nisin can deactivate bacteria by adsorbing to the cell membrane, disrupting the cell membrane, and promoting the loss of essential int ...
substance,measurement,setting,value
"Nisin (I[Dhb]SI[Dha]LCTPGCKTGALMGCNMKTATCHCSIHV[Dha]K; thioether (positions not given here); not fully specified (residues 3, 8, 13, 23, 25, bridges); UniProt P13068 24-57, looked up) [natural bacteriocin, small peptide of 34 amino acid residues produced by Lactococcus lactis; purchased from Aladdin]",OD600 value of the bacterial suspension after treatment,"S. aureus (ATCC 6538); 1 mg nisin or 50 mg nisin-SACD (containing 1 mg nisin) in 10 mL culture (10^6 CFU), LB media, 37 °C, 24 h, blank OD600 1.23, n = 3",0.46
same,fold decrease of OD600 versus untreated culture,"S. aureus (ATCC 6538); as for OD600, relative to blank 1.23",2.7 fold
same,antibacterial effects at the setting concentration range (MIC test),S. aureus [1],no significant antibacterial effects
same,total and dead bacteria (fluorescence intensity) in comparison to the untreated group,S. aureus [2],Certain degree of inhibition on bacteria proliferation
same,maximum decomposition peak temperature (dTG),[3],333 °C
same,weight loss at the end of heating (TG),[3],< 7%
succinic acid-β-cyclodextrin [SACD],antibacterial effects at the setting concentration range (MIC test),S. aureus [1],no significant antibacterial effects
same,total and dead bacteria (fluorescence intensity) in comparison to the untreated group,S. aureus [2],Certain degree of inhibition on bacteria proliferation
same,antibacterial activity against S. aureus,S. aureus [4],did show antibacterial activity
